Results reported in patent US12065443B2, “Compounds and pharmaceutical compositions thereof for the treatment of diseases” (priority 2017, dated 2024).

Legend:
Test in all cases: biochemical
SIK1 = target: T1, SIK1 (Homo sapiens, UniProt P57059); details: 33P radioactive SIK kinase assay, AMARA peptide, 10 μM ATP; read-out: SIK1 IC50
T1 construct: purchased Carna Biosciences 02-131
Description: (§1) The principle of the ^33P radioactive kinase assay consists in measuring the incorporated ^33P into the substrate AMARA peptide when phosphorylated by SIK1, SIK2 or SIK3 using [^33P]-g-ATP, which correlates with kinase activity.
(§2) 1% DMSO and 10 μM staurosporine final concentrations are used as negative and positive controls.
(§3) 11 μL of enzyme-substrate mixture is added on the assay plates. The reactions are started by adding 9 μL ATP mixture, consisting of non-labeled and ^33P-labeled ATP, on the assay plates.
(§4) The reactions are stopped by adding 25 μL phosphoric acid (150 mM) to the reactions.
(§5) After harvesting the kinase reactions, the filter plates are washed 6 times with phosphoric acid (75 mM). […] The top of the plates are sealed with TopSeal-A. Read-out is performed with a TopCount instrument (PerkinElmer Inc.).

SIK2 = target: T2, SIK2 (Homo sapiens, UniProt Q9H0K1); details: 33P radioactive SIK kinase assay, AMARA peptide, 10 μM ATP
T2 construct: purchased ThermoFisher Scientific PV4792
Description: as §1, §2, §3, §4, §5

SIK3 = target: T3, SIK3 (Homo sapiens, UniProt Q9Y2K2)
T3 construct: purchased SignalChem S12-11G-100
Description: as §1, §2, §3, §4, §5

T3 sequence (Q9Y2K2 whole entry): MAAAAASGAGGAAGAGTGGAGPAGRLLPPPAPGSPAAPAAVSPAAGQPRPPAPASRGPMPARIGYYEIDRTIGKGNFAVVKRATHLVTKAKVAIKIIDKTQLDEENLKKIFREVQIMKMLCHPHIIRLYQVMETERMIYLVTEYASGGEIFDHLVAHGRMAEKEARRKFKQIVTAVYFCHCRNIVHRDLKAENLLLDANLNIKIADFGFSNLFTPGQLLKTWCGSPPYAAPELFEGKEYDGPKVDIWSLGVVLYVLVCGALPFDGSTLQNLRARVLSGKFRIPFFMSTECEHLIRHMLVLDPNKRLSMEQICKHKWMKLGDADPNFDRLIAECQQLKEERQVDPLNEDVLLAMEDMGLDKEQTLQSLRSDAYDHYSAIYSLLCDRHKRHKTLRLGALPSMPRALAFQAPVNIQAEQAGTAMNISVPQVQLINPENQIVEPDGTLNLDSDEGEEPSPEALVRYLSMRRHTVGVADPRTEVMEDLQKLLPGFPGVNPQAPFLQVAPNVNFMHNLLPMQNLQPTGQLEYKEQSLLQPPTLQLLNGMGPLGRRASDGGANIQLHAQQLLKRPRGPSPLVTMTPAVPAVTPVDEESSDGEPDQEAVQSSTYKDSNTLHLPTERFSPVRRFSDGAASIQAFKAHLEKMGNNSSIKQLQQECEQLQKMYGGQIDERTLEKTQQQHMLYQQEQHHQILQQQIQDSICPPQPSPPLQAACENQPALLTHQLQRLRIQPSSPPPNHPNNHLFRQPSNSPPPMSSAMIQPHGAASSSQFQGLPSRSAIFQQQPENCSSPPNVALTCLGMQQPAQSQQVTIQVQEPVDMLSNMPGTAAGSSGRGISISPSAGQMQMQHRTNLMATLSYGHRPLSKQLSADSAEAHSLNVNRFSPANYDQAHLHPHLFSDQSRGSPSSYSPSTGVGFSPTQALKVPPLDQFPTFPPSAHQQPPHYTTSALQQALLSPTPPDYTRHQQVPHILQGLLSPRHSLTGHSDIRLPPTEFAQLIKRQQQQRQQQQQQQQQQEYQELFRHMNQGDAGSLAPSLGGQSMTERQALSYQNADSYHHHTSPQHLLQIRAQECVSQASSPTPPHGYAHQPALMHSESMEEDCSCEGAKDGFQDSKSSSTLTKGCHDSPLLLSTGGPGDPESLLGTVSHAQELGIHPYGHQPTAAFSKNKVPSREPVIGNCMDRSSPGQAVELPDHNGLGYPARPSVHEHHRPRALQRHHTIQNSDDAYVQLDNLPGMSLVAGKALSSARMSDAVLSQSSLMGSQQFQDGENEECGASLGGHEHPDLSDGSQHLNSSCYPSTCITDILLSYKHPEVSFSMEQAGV
T1 sequence (P57059 whole entry): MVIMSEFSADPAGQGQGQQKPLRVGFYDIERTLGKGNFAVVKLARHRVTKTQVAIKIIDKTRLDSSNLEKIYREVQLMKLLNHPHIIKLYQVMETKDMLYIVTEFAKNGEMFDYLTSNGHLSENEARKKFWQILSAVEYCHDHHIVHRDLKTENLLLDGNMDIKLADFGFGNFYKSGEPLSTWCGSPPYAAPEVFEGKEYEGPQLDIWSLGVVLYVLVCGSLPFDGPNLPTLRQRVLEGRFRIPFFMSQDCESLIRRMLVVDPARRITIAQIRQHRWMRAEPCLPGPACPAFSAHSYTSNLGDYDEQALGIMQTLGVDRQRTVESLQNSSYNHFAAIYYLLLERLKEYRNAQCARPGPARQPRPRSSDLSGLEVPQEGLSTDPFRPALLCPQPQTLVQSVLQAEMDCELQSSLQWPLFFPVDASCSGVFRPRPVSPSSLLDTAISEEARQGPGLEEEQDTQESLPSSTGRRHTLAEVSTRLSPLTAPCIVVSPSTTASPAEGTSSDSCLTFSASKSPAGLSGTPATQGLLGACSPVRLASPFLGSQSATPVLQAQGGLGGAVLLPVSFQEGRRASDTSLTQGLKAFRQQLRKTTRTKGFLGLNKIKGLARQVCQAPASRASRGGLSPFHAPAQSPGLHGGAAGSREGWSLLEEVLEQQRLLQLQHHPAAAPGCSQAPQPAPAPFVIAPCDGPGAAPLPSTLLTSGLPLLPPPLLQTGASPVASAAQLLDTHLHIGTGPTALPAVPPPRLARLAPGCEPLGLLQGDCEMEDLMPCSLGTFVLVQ
T2 sequence (Q9H0K1 whole entry): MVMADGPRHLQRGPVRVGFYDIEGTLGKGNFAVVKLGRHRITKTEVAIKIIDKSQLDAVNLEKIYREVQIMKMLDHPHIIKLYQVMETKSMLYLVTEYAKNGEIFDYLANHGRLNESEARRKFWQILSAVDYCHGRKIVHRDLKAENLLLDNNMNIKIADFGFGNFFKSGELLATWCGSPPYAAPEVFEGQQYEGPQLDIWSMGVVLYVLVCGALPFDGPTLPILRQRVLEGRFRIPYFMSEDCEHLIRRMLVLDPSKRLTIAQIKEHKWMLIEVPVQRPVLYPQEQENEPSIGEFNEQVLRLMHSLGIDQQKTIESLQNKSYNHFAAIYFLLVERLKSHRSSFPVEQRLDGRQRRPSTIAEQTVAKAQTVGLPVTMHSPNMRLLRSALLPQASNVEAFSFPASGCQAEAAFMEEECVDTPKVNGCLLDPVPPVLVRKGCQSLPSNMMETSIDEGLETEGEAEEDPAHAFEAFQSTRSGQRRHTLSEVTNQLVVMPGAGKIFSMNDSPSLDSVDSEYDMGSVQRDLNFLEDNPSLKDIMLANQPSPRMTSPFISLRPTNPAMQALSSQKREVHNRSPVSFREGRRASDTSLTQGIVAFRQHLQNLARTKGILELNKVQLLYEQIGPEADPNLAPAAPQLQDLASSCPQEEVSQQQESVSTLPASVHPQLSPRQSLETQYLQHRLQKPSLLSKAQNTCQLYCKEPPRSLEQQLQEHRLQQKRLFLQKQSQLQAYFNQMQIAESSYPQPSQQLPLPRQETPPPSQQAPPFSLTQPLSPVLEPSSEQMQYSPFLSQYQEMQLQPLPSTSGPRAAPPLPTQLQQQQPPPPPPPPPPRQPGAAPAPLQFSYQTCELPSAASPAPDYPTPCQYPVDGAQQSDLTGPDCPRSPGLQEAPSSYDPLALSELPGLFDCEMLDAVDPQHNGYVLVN

| SMILES | IC50 (SIK1) [nM] | IC50 (SIK2) [nM] | IC50 (SIK3) [nM] |
| --- | --- | --- | --- |
| COc1cc(-n2cnc3cc(-c4cnn(C)c4)ccc32)cc(OC)c1C(=O)NC1CCC[C@H]1O (stereo in doubt) [compound 140, N-[(1R,2R)-2-hydroxycyclopentyl]-2,6-dimethoxy-4-[5-(1-methylpyrazol-4-yl)benzimidazol-1-yl]benzamide] | 10 to 100 | 10 to 100 | 10 to 100 |
| COc1cc(-n2cnc3cc(-c4cnn(C)c4)ccc32)cc(OC)c1C(=O)NC1CCC[C@@H]1O (stereo in doubt) [compound 141, N-[(1R,2S)-2-hydroxycyclopentyl]-2,6-dimethoxy-4-[5-(1-methylpyrazol-4-yl)benzimidazol-1-yl]benzamide] | 10 to 100 | 10 to 100 | 10 to 100 |
| COc1cc(-n2cnc3cc(-c4cnn(C)c4)ccc32)cc(OC)c1C(=O)Nc1cnc(C)cn1 [Cpd 70, 2,6-dimcthoxy-N-(5-methylpyrazin-2-yl)-4-[5-(1-methylpyrazol-4-yl)benzimidazol-1-yl]benzamide] | 100 to 500 | 10 to 100 | 100 to 500 |
| COc1cc(-n2cnc3cc(-c4cnn(C)c4)ccc32)cc(OC(C)C)c1C(=O)NC1CC1 [Cpd 119, N-cyclopropyl-2-isopropoxy-6-methoxy-4-[5-(1-methylpyrazol-4-yl)benzimidazol-1-yl]benzamide] | 100 to 500 | 100 to 500 | 100 to 500 |
| COc1cc(-n2cnc3cc(-n4ccc(C)n4)ccc32)cc(OC)c1C(=O)NCC(F)(F)F [Cpd 154, 2,6-dimethoxy-4-[5-(3-methylpyrazol-1-yl)benzimidazol-1-yl]-N-(2,2,2-trifluoroethyl)benzamide] | 100 to 500 | 100 to 500 | 100 to 500 |
| COc1cc(-n2cnc3cc(-n4nc(C)cc4C)ccc32)cc(OC)c1C(=O)NCC(F)(F)F [Cpd 165, 4-[5-(3,5-dimethylpyrazol-1-yl)benzimidazol-1-yl]-2,6-dimethoxy-N-(2,2,2-trifluoroethyl)benzamide] | > 500 | > 500 | > 500 |
| COc1cc(-n2cnc3cc(-n4cnc(C)n4)ccc32)cc(OC)c1C(=O)NCC(F)(F)F [Cpd 166, 2,6-dimethoxy-4-[5-(3-methyl-1,2,4-triazol-1-yl)benzimidazol-1-yl]-N-(2,2,2-trifluoroethyl)benzamide] | > 500 | > 500 | 100 to 500 |
| COc1cc(-n2cnc3cc(-c4nnc(C)o4)ccc32)cc(OC)c1C(=O)NCC(F)(F)F [Cpd 167, 2,6-dimethoxy-4-[5-(5-methyl-1,3,4-oxadiazol-2-yl)benzimidazol-1-yl]-N-(2,2,2-trifluoroethyl)benzamide] | > 500 | > 500 | 100 to 500 |
| COc1cc(-n2cnc3cc(-c4nnc(C)n4C)ccc32)cc(OC)c1C(=O)NCC(F)(F)F [Cpd 168, 4-[5-(4,5-dimethyl-1,2,4-triazol-3-yl)benzimidazol-1-yl]-2,6-dimethoxy-N-(2,2,2-trifluoroethyl)benzamide] | > 500 | > 500 | > 500 |
| COc1cc(-n2cnc3cc(-c4nc(C)no4)ccc32)cc(OC)c1C(=O)NCC(F)(F)F [Cpd 169, 2,6-dimethoxy-4-[5-(3-methyl-1,2,4-oxadiazol-5-yl)benzimidazol-1-yl]-N-(2,2,2-trifluoroethyl)benzamide] | > 500 | > 500 | > 500 |
| CCn1cc(-c2ccc3c(c2)ncn3-c2cc(OC)c(C(=O)NCCO)c(OC)c2)cn1 [compound 5, 4-[5-(1-ethylpyrazol-4-yl)benzimidazol-1-yl]-N-(2-hydroxyethyl)-2,6-dimethoxy-benzamide] | 100 to 500 | 10 to 100 | 10 to 100 |
| CCNC(=O)c1c(OC)cc(-n2cnc3cc(-c4cn(C)nc4C)ccc32)cc1OC [compound 8, 4-[5-(1,3-dimethylpyrazol-4-yl)benzimidazol-1-yl]-N-ethyl-2,6-dimethoxy-benzamide] | 100 to 500 | 10 to 100 | 100 to 500 |
| CCNC(=O)c1c(O)cc(-n2cnc3cc(-c4cnn(CC)c4)ccc32)cc1OC [compound 23, N-ethyl-4-[5-(1-ethylpyrazol-4-yl)benzimidazol-1-yl]-2-hydroxy-6-methoxy-benzamide] | 10 to 100 | 10 to 100 | 10 to 100 |
| CCn1cc(-c2ccc3c(c2)ncn3-c2cc(OC)c(C(=O)N(C)CCOC)c(OC)c2)cn1 [compound 27, 4-[5-(1-ethylpyrazol-4-yl)benzimidazol-1-yl]-2,6-dimethoxy-N-(2-methoxyethyl)-N-methyl-benzamide] | > 500 | > 500 | > 500 |
| CCn1cc(-c2ccc3c(c2)ncn3-c2cc(OC)c(C(=O)N(C)CC(C)C)c(OC)c2)cn1 [compound 28, 4-[5-(1-ethylpyrazol-4-yl)benzimidazol-1-yl]-N-isobutyl-2,6-dimethoxy-N-methyl-benzamide] | > 500 | > 500 | > 500 |
| CCn1cc(-c2ccc3c(c2)ncn3-c2cc(OC)c(C(=O)N(C)CC#N)c(OC)c2)cn1 [compound 31, N-(cyanomethyl)-4-[5-(1-ethylpyrazol-4-yl)benzimidazol-1-yl]-2,6-dimethoxy-N-methyl-benzamide] | 100 to 500 | 100 to 500 | 10 to 100 |
| COc1cncc(-c2ccc3c(c2)ncn3-c2cc(OC)c(C(=O)NCC(F)(F)F)c(OC)c2)c1 [compound 35, 2,6-dimethoxy-4-[5-(5-methoxy-3-pyridyl)benzimidazol-1-yl]-N-(2,2,2-trifluoroethyl)benzamide] | 100 to 500 | 100 to 500 | 10 to 100 |
| COc1cc(-n2cnc3cc(-c4ccc(C#N)nc4)ccc32)cc(OC)c1C(=O)NCC(F)(F)F [compound 36, 4-[5-(6-cyano-3-pyridyl)benzimidazol-1-yl]-2,6-dimethoxy-N-(2,2,2-trifluoroethyl)benzamide] | 100 to 500 | 10 to 100 | 10 to 100 |
| COc1cc(-n2cnc3cc(-c4ccc(N(C)C)nc4)ccc32)cc(OC)c1C(=O)NCC(F)(F)F [compound 37, 4-[5-[6-(dimethylamino)-3-pyridyl]benzimidazol-1-yl]-2,6-dimethoxy-N-(2,2,2-trifluoroethyl)benzamide] | 100 to 500 | 100 to 500 | 100 to 500 |
| COc1cc(-n2cnc3cc(-c4ccc(N)nc4)ccc32)cc(OC)c1C(=O)NCC(F)(F)F [compound 38, 4-[5-(6-amino-3-pyridyl)benzimidazol-1-yl]-2,6-dimethoxy-N-(2,2,2-trifluoroethyl)benzamide] | 100 to 500 | 10 to 100 | 10 to 100 |
| COc1cc(-n2cnc3cc(-c4cccnc4)ccc32)cc(OC)c1C(=O)NCC(F)(F)F [compound 39, 2,6-dimethoxy-4-[5-(3-pyridyl)benzimidazol-1-yl]-N-(2,2,2-trifluoroethyl)benzamide] | 100 to 500 | 10 to 100 | 10 to 100 |
| CCn1cc(-c2ccc3c(c2)ncn3-c2cc(OC)c(C(=O)NC3CCCC3)c(OC)c2)cn1 [compound 45, N-cyclopentyl-4-[5-(1-ethylpyrazol-4-yl)benzimidazol-1-yl]-2,6-dimethoxy-benzamide] | 10 to 100 | 10 to 100 | 10 to 100 |
| COc1cc(-n2cnc3cc(-c4cn[nH]c4)ccc32)cc(OC)c1C(=O)NCC(F)(F)F [compound 47, 2,6-dimethoxy-4-[5-(1H-pyrazol-4-yl)benzimidazol-1-yl]-N-(2,2,2-trifluoroethyl)benzamide] | 10 to 100 | 10 to 100 | 0.01 to 10 |
| COc1cc(-n2cnc3cc(-c4cnn(C)c4)ccc32)cc(OC)c1C(=O)NCCC#N [compound 59, N-(2-cyanoethyl)-2,6-dimethoxy-4-[5-(1-methylpyrazol-4-yl)benzimidazol-1-yl]benzamide] | 10 to 100 | 10 to 100 | 10 to 100 |
| COCCCNC(=O)c1c(OC)cc(-n2cnc3cc(-c4cnn(C)c4)ccc32)cc1OC [compound 60] | 10 to 100 | 10 to 100 | 100 to 500 |
| COc1cc(-n2cnc3cc(-c4cnn(C)c4)ccc32)cc(OC)c1C(=O)NCc1ccn(C)n1 [compound 61] | > 500 | 100 to 500 | > 500 |
| COc1cc(-n2cnc3cc(-c4cnn(C)c4)ccc32)cc(OC)c1C(=O)NCc1ccccn1 [compound 62, 2,6-dimethoxy-4-[5-(1-methylpyrazol-4-yl)benzimidazol-1-yl]-N-(2-pyridylmethyl)benzamide] | 100 to 500 | 100 to 500 | 100 to 500 |
| COc1cc(-n2cnc3cc(-c4cnn(C)c4)ccc32)cc(OC)c1C(=O)NCCCO [compound 63, N-(3-hydroxypropyl)-2,6-dimethoxy-4-[5-(1-methylpyrazol-4-yl)benzimidazol-1-yl]benzamide] | 100 to 500 | 10 to 100 | 10 to 100 |
| COc1cc(-n2cnc3cc(-c4cnn(C)c4)ccc32)cc(OC)c1C(=O)NC1CS(=O)(=O)C1 [compound 64, N-(1,1-dioxothietan-3-yl)-2,6-dimethoxy-4-[5-(1-methylpyrazol-4-yl)benzimidazol-1-yl]benzamide] | 100 to 500 | 10 to 100 | 10 to 100 |
